According to EP3670512A1, “DIAZABICYCLOOCTANONES AS INHIBITORS OF SERINE BETA-LACTAMASES” (Antabio SAS, priority 2018, dated 2020):
Converted amounts (≈) assume the structure as drawn.

Experiments:
[1] = test system: NTBC091.1 (E. coli strain expressing KPC-2, TEM-1); assay: Meropenem potentiation, broth micro-dilution MIC, strain NTBC091.1; type: cell-based; details: for MIC mero + 4 µg/mL inhibitor: NTBC091.1, MIC of meropenem with 4 µg/mL of the labelled compound; for MIC of combination with meropenem compared with the combination of meropenem and avibactam: strain NTBC091.1
[2] = test system: NTBC096.1 (K. pneumoniae strain expressing OXA-181 and SHV-11); assay: Meropenem potentiation, broth micro-dilution MIC, strain NTBC096.1; type: cell-based
CTX-M15 = CTX-M15 (Escherichia coli, UniProt Q9EXV5); assay: In vitro enzyme inhibition assay (nitrocefin hydrolysis), CTX-M15; type: biochemical; details: nitrocefin 50µM, 10mM HEPES pH 7.5; numeric value
Chain of CTX-M15 (Q9EXV5 29-291, species assumed): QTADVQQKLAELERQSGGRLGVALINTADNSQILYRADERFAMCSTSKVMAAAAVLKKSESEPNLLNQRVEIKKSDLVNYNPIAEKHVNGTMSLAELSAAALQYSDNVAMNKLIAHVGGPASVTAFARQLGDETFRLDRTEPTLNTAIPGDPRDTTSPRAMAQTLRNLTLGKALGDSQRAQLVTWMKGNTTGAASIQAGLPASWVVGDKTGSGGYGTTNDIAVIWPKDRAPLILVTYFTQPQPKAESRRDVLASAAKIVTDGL
Procedure: (§1) Compound dilution was performed in DMSO.

AmpC = assay: In vitro enzyme inhibition assay (nitrocefin hydrolysis), AmpC; type: biochemical; details: nitrocefin 100µM, 10mM HEPES pH 7.5; banded; read-out: Amp-C mean IC50
Procedure: as §1

[3] = test system: NTBC093 (E. cloacae strain expressing KPC-2, TEM-1); assay: Meropenem potentiation, broth micro-dilution MIC, strain NTBC093; type: cell-based; details: for MIC mero + 4 µg/mL inhibitor: NTBC093, MIC of meropenem with 4 µg/mL of the labelled compound, banded
[4] = test system: clinical strains of Enterobacteriaceae that are resistant to betalactam antibiotics (produce OXA variants of SBL enzymes); assay: Cumulative MIC against large panel of resistant clinical strains (Figure 1); type: cell-based; details: at an MIC of 1 µg/mL, Example 10 in combination with meropenem
Text: The data is presented in Figure 1 in the standard cumulative MIC fashion.

[5] = test system: NTBC189 (K. pneumoniae strain expressing TEM-OSBL(b), CTX-M-14, OXA-48(c)); assay: Meropenem potentiation, broth micro-dilution MIC, strain NTBC189; type: cell-based
[6] = test system: panel of 48 A. baumannii strains that are resistant to betalactam antibiotics (produces OXA variants of SBL enzymes); assay: Cumulative MIC against panel of 48 resistant strains (Figure 2); type: cell-based; details: in the presence of 16 µg/mL of each inhibitor, Example 10 in combination with meropenem
Text: The data is presented in Figure 2 in the standard cumulative MIC fashion.

[7] = test system: NTBC099 (K. pneumoniae strain expressing KPC-3, SHV-11 and TEM-1); assay: microbe, parasite or virus in culture; type: cell-based; details: Klebsiella pneumoniae, read-out: MIC mero, µg/mL, no inhibitor
[8] = Klebsiella pneumoniae, read-out: MIC mero, µg/mL, no inhibitor

SMILES | IC50 (AmpC) [µM] | MIC mero + 4 µg/mL inhibitor ([1]; banded) | MIC mero + 4 µg/mL inhibitor [3] | other results
NC(=O)[C@@H]1CC[C@@H]2CN1C(=O)N2OS(=O)(=O)O [Avibactam, avibactam] |  |  |  | MIC mero + 4 µg/mL inhibitor ([1]; numeric): 0.06 (A) µg/mL; MIC mero + 4 µg/mL inhibitor ([2]; NTBC096.1, MIC of meropenem with 4 µg/mL of the labelled compound, numeric): 1(B) µg/mL; IC50 (CTX-M15): 0.0014 µM
O=C1N2C[C@@H](CC[C@H]2C(F)(F)F)N1OS(=O)(=O)[O-].[Na+] [Example 1, Sodium (2S, 5R)-7-oxo-2-(trifluoromethyl)-1,6-diazabicyclo[3.2.1]octan-6-yl sulfate] | < 0.01 | (A) (MIC < 1 µg/mL (A)) |  | MIC mero + 4 µg/mL inhibitor ([1]; numeric): 0.03 µg/mL; MIC of combination with meropenem compared with the combination of meropenem and avibactam [1]: lower
O=C1N2C[C@@H](CC[C@H]2C(F)F)N1OS(=O)(=O)[O-].[Na+] [Example 2, Sodium (2S, 5R)-7-oxo-2-(difluoromethyl)-1,6-diazabicyclo[3.2.1]octan-6-yl sulfate] | 0.01 to 0.04 | (A) (MIC < 1 µg/mL (A)) |  | MIC mero + 4 µg/mL inhibitor ([1]; numeric): 0.03 µg/mL; MIC of combination with meropenem compared with the combination of meropenem and avibactam [1]: lower
O=C1N2C[C@@H](CC[C@H]2C(Cl)Cl)N1OS(=O)(=O)[O-].[Na+] [Example 3, Sodium (2S,5R)-2-(dichloromethyl)-7-oxo-1,6-diazabicyclo[3.2.1]octan-6-yl sulfate] | 0.04 to 0.06 | (A) (MIC < 1 µg/mL (A)) | (A) (MIC < 1 µg/mL (A)) | 
O=C1N2C[C@@H](CC[C@H]2CF)N1OS(=O)(=O)[O-].[Na+] [Example 4, Sodium (2S, 5R)-2-(fluoromethyl)-7-oxo-1,6-diazabicyclo[3.2.1]octan-6-yl sulphate] | < 0.01 | (A) (MIC < 1 µg/mL (A)) | (A) (MIC < 1 µg/mL (A)) | 
CC(F)(F)[C@@H]1CC[C@@H]2CN1C(=O)N2OS(=O)(=O)[O-].[Na+] [Example 5, Sodium (2S, 5R)-2-(1,1-difluoroethyl)-7-oxo-1,6-diazabicyclo[3.2.1]octan-6-yl sulphate] | 0.04 to 0.06 | (A) (MIC < 1 µg/mL (A)) | (A) (MIC < 1 µg/mL (A)) | 
O=C1N2C[C@@H](CC[C@H]2CCl)N1OS(=O)(=O)[O-].[Na+] [Example 6, Sodium (2S, 5R)-2-(chloromethyl)-7-oxo-1,6-diazabicyclo[3.2.1]octan-6-yl sulphate] | 0.01 to 0.04 | (A) (MIC < 1 µg/mL (A)) | (A) (MIC < 1 µg/mL (A)) | 
O=C1N2C[C@@H](CC[C@H]2SC(F)(F)F)N1OS(=O)(=O)[O-].[Na+] [Example 7, Sodium (2R, 5R)-7-oxo-2-[(trifluoromethyl)sulfanyl]-1,6-diazabicyclo[3.2.1]octan-6-yl sulphate] | 0.04 to 0.06 | (A) (MIC < 1 µg/mL (A)) | (B) (MIC = 1 or 2 µg/mL (B)) | 
O=C1N2C[C@@H](CC[C@H]2COC(F)(F)F)N1OS(=O)(=O)[O-].[Na+] [Example 8, Sodium (2S, 5R)-7-oxo-2-[(trifluoromethoxy)methyl]-1,6-diazabicyclo[3.2.1]octan-6-yl sulphate] | 0.04 to 0.06 | (A) (MIC < 1 µg/mL (A)) | (A) (MIC < 1 µg/mL (A)) | 
O=C1N2C[C@@H](CC[C@H]2C(F)(F)c2nccs2)N1OS(=O)(=O)[O-].[Na+] [Example 9, Sodium (2S, 5R)-2-[difluoro(1,3-thiazol-2-yl)methyl]-7-oxo-1,6-diazabicyclo[3.2.1]octan-6-yl sulphate] | < 0.01 | (A) (MIC < 1 µg/mL (A)) | (A) (MIC < 1 µg/mL (A)) | 
O=C1N2C[C@@H](CC[C@H]2F)N1OS(=O)(=O)[O-].[Na+] [Example 10, Sodium (2R,5R)-2-fluoro-7-oxo-1,6-diazabicyclo[3.2.1]octan-6-yl sulfate] | 0.01 to 0.04 | (A) (MIC < 1 µg/mL (A)) | (A) (MIC < 1 µg/mL (A)) | fraction of strains susceptible [4]: over 90%; MIC of combination with meropenem compared with the combination of meropenem and avibactam [1]: lower; MIC of combination with meropenem compared with the combination of meropenem and avibactam ([5]; strain NTBC189): lower; MIC of combination with meropenem compared with the combination of meropenem and avibactam ([2]; strain NTBC096.1): lower; MIC of combination with meropenem compared with the combination of meropenem and avibactam ([3]; strain NTBC093): similar
O=C1N2C[C@@H](CC[C@@H]2F)N1OS(=O)(=O)[O-].[Na+] [Example 11, Sodium (2S, 5R)-2-fluoro-7-oxo-1,6-diazabicyclo [3.2.1] octan-6-yl sulfate] | > 0.06 | (A) (MIC < 1 µg/mL (A)) | (B) (MIC = 1 or 2 µg/mL (B)) | 
O=C1N2C[C@@H](CC[C@H]2Cl)N1OS(=O)(=O)[O-].[Na+] [Example 12, Sodium (2R,5R)-2-chloro-7-oxo-1,6-diazabicyclo[3.2.1]octan-6-yl sulfate] | < 0.01 | (A) (MIC < 1 µg/mL (A)) | (A) (MIC < 1 µg/mL (A)) | MIC of combination with meropenem compared with the combination of meropenem and avibactam [1]: lower
C[C@@H](O)[C@H]1C(=O)N2C(C(=O)O)=C(S[C@@H]3CN[C@H](C(=O)N(C)C)C3)[C@H](C)[C@H]12 [meropenem, reference compound] |  |  |  | fraction of strains susceptible [4]: 0%; fraction of strains susceptible [6]: less than 10%; MIC ([1]; Escherichia coli, read-out: MIC mero, µg/mL, no inhibitor): 4 µg/mL; MIC [5, 8]: 32 µg/mL; MIC [2, 8]: 32 µg/mL; MIC ([3]; Enterobacter cloacae, read-out: MIC mero, µg/mL, no inhibitor): 8 µg/mL; MIC [7]: 256 µg/mL (≈ 668 µM)
